Common to all, as to format: biochemical
The test system of experiment [1] is InaK-lipase: Bacillus sp. 42 thermostable organic solvent tolerant lipase (encoding nucleic acid SEQ ID NO: 15) fused to Ice Nucleation Protein InaK, on the …. The experiment in a line: Lipase activity, continuous spectrophotometric rate determination at 400 nm, Michaelis-Menten fit, InaK-lipase on minicell surface. Conditions: 4-nitrophenyl-butyrate 0-5 mM, 37° C., pH 7.2; Cells/Well: 107,840,000; best-fit value. The method, then:
(§1) Kinetic analysis of the reaction was analyzed by continuous spectrophotometric rate determination at 400 nm.
Another bacterial surface display protein, Ice Nucleation Protein K (InaK) was used for expressing recombinant lipase proteins fused to anchoring linker protein (motif) that direct the incorporated fusion protein on the surface of minicells. Like BrkAutoDisplay, polynucleotide encoding Inak transmembrane protein and the lipase-encoding gene were inserted into the pGEX-6P-1 vector for producing the bacterial surface display lipase protein as illustrated in FIG. 7A. […]
(§2) In order to further confirm presence of the functional lipase-fusion protein in both the elution fraction from the protein purification and the surface of the cell, a lipase activity assay was designed using the lipase substrate, 4-nitrophenyl-butyrate. […] The pathlength, 0.625 cm, was calculated from the known volume of the well (200 uL) and the well's surface area (0.32 cm^2).
For the enzymatic assay, required are the reaction buffer (100 mM Sodium Phosphate Buffer solution pH 7.2, 0.5% (v/v) Triton-X 100, 150 mM Sodium Chloride), the enzyme/cell solution in 1×PBS, and the substrate solution which is varying concentrations of 4-nitrophenyl-butyrate in acetonitrile. […] Activity was determined from a Michaelis-Menten fit of the calculated rates resulting from varying the substrate concentration according to the Table 10. […]

For experiment [2], the system named is AIDA-lipase (pAIDA-lipase): Bacillus sp. 42 thermostable organic solvent tolerant lipase (encoding nucleic acid SEQ ID NO: 15) fused to AIDA-1 autotransporter …. The experiment in a line: Lipase activity, continuous spectrophotometric rate determination at 400 nm, Michaelis-Menten fit, AIDA-lipase on minicell surface. Particulars: 4-nitrophenyl-butyrate 0-5 mM, 37° C., pH 7.2; Cells/Well: 99,946,667; best-fit value. The method, then:
as §1
This construction was conducted with primarily designed pAIDA-1 plasmid (from Addgene, Cambridge, MA) in which the lipase-encoding gene was ligated into the passenger domain within the AIDA-I autotransporter using KpnI and SacI sites as illustrated in FIG. 4A. The tags existed on the pAIDA-1 plasmid prior were used for further analysis on lipase expression. After the ligation is completed, the 6× His tag and HRV3C site are located at N-terminus of the lipase-encoding gene and the Myc tag and TEV site are placed at C-terminus of the lipase-encoding gene. The 6× His tag, which is the 5′ end of the surface-expressed fusion lipase protein was used for Cobalt immobilized metal affinity chromatography (IMAC) and for immunofluorescent staining with THE His Tag antibody [FITC] from Genscript. […]
In order to further confirm presence of the functional lipase-fusion protein in both the elution fraction from the protein purification and the surface of the cell, a lipase activity assay was designed using the lipase substrate, 4-nitrophenyl-butyrate. […] The pathlength, 0.625 cm, was calculated from the known volume of the well (200 uL) and the well's surface area (0.32 cm^2). […]

Experiment [3] concerns Brk-lipase: Bacillus sp. 42 thermostable organic solvent tolerant lipase (encoding nucleic acid SEQ ID NO: 15) fused to BrkA autotransporter, on the surface of …. The experiment in a line: Lipase activity, continuous spectrophotometric rate determination at 400 nm, Michaelis-Menten fit, Brk-lipase on minicell surface. Conditions: 4-nitrophenyl-butyrate 0-5 mM, 37° C., pH 7.2; Cells/Well: 17,706,667; best-fit value. The method, then: as §1
For a bacterial surface display system named as BrkAutoDisplay based on the structure of autotransporter BrkA (Bordetella serum-resistance killing protein A) was used to host an exogenous gene encoding lipase. To construct a recombinant Brk-lipase expression vector, Brk autotransporter gene was first cloned into the pGEX-6P-1 plasmid. Using BamHI and EcoRI restriction sites, the lipase-encoding gene was ligated with the Brk autotransporter gene, as illustrated in FIG. 6A. […]
as §2
For the enzymatic assay, required are the reaction buffer (100 mM Sodium Phosphate Buffer solution pH 7.2, 0.5% (v/v) Triton-X 100, 150 mM Sodium Chloride), the enzyme/cell solution in 1×PBS, and the substrate solution which is varying concentrations of 4-nitrophenyl-butyrate in acetonitrile. […] Vmax and Km were calculated using GraphPad Prism Michaelis-Menten fitting parameters. […]

For the compound `CCCC(=O)Oc1ccc([N+](=O)[O-])cc1` [4-nitrophenyl-butyrate], the results for the Km in experiment [1], in experiment [2] and in experiment [3] were 302 µM, 180 µM and 221 µM, respectively. For the same compound, the Vmax was 0.06354 µM/s in experiment [1], 0.08174 µM/s in experiment [2] and 0.04453 µM/s in experiment [3].
